Test results reported in ChEMBL document CHEMBL1201862, “PubChem BioAssay data set” (2004).
The source made the active and inactive calls.

Assays:
[1] = biological target: Nuclear receptor subfamily 5 group A member 2 (Homo sapiens, UniProt O00482); assay type: functional, cell-based;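 further: HEK293T cells transfected with LRH-1 and a StAR promoter luciferase reporter; potency for inhibitors that lower LRH-1 driven reporter light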
Steroidogenic factor 1 = Steroidogenic factor 1 (Homo sapiens, UniProt Q13285); experiment: Counterscreen for inverse agonists of the liver receptor homolog-1 (LRH-1; NR5A2): Luminescence-based cell-based high throughput dose response assay to identify inverse agonists of the Steroidogenic Factor 1 Nuclear Receptor (SF1; NR5A1).; assay type: functional
[2] = StAR promoter reporter inhibition counter-screen, dose response, counter-screen for LRH-1 inverse agonist project, cell-based, luminescence, luciferase reporter (AID 651969); assay type: functional
cells [3] = assay type: functional, cell-based; details: HEK-CNG
[4] = biological target: DNA dC->dU-editing enzyme APOBEC-3A (Homo sapiens, UniProt P31941); experiment: Dose Response confirmation of small molecule APOBEC3A DNA Deaminase Inhibitors via a fluorescence-based single-stranded DNA deaminase assay. [Related pubchem assays (depositor defined):AID493011, AID493024]; assay type: functional
[5] = biological target: DNA dC->dU-editing enzyme APOBEC-3G (Homo sapiens, UniProt Q9HC16); assay type: functional;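 further: Dose-response counterscreen measuring inhibition of APOBEC3G DNA deaminase activity, run while confirming APOBEC3A inhibitors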
[6] = inhibitors of intracellular T. cruzi replication, confirmation, NIH3T3 host cells, beta-gal luminescence (AID 2044); assay type: functional, cell-based;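 further: intracellular parasites grown in NIH/3T3 mouse fibroblasts as host cells; luminescent beta-galactosidase reporter signal from transgenic T. cruzi replicating inside host cells; inhibitors lower the luminescence signal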
[7] = cytotoxicity toward NIH3T3 fibroblasts, dose response, counter-screen, cell-based, ATP luminescence, mouse fibroblasts (AID 2010); assay type: functional;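 further: cells exposed to compound for about 90 hours before reading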
Galanin receptor type 3 = Galanin receptor type 3 (Homo sapiens, UniProt O60755); experiment: Fluorescence-based cell-based primary high throughput dose response assay to identify antagonists of the Galanin Receptor 3 (GalR3).; assay type: functional
[8] = biological target: T1, DNA repair protein RAD52 homolog (Homo sapiens, UniProt P43351); assay type: functional, biochemical
T1 sequence (P43351 whole entry): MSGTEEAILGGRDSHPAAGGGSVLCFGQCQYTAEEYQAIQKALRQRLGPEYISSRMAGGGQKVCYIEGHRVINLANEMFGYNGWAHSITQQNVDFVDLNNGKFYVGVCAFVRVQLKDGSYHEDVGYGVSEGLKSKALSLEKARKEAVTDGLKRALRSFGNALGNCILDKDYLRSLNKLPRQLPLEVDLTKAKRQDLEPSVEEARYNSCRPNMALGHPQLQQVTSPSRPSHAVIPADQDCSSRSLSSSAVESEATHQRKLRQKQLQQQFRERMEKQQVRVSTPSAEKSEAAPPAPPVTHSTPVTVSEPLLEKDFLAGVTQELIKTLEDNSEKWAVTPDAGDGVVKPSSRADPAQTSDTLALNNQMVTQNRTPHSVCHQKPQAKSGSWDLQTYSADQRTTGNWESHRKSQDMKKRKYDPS

[9] = biological target: Histone-lysine N-methyltransferase NSD2 (Homo sapiens, UniProt O96028); assay type: biochemical
[10] = biological target: FAD-linked sulfhydryl oxidase ALR (Homo sapiens, UniProt P55789); experiment: inhibitors of human ALR sulfhydryl oxidase, dose response, biochemical, H2O2 detection, luminescence, cherry-pick (AID 493248)
[11] = CEM21 lymphoblast cell cytotoxicity, dose response, cytotoxicity control for viral fusion inhibitor project, CellTiter-Glo luminescence, cherry-picked (AID 652042); assay type: functional, cell-based;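 further: potency for signal decrease meaning cytotoxicity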
[12] = inhibitors of HIV Env-driven cell fusion, dose response, cherry-pick (AID 652057); assay type: functional, cell-based
[13] = HepG2 cell cytotoxicity, dose response, cytotoxicity control for Shn3 inhibitor project, CellTiter-Glo, cherry-picked (AID 624134); assay type: functional, cell-based
[14] = Shn3 3'UTR reporter inhibitors, dose response, cell-based, Clone20 osteoblasts, firefly luciferase, cherry-picked (AID 624132); assay type: functional;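 further: firefly luciferase luminescence from reporter carrying the Shn3 3'UTR in osteoblasts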
[15] = control 3'UTR Renilla luciferase suppression, dose response, counter-screen for Shn3 inhibitor project, cell-based, Clone20-Shn3RL, cherry-picked (AID 624133); assay type: functional
Protein Wnt-3a = Protein Wnt-3a (Mus musculus, UniProt P27467); experiment: Wnt3a-driven reporter signaling inhibition, dose response, selectivity assay for Gli-SUFU antagonist project, Wnt-LIGHT cells, luminescence (AID 651570); assay type: functional; details: read-out: IC50_Mean;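 further: Wnt-LIGHT reporter cells stimulated with conditioned medium from Wnt3a-producing cells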
INS1 = experiment: beta cell apoptosis inhibitors, cytokine rescue, dose response, luminescence, retest (AID 449756); assay type: functional, cell-based; details: Rattus norvegicus;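 further: cell death triggered by IL-1 beta plus TNF-alpha plus IFN-gamma mixture; protective hits raise ATP signal compared with cytokine alone wells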
Large T antigen = Large T antigen (Simian virus 40, UniProt P03070); assay type: functional, Betapolyomavirus macacae;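 further: Confirmatory-stage PubChem screen for compounds that inhibit SV40 T antigen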
[16] = biological target: T2, Heat shock factor protein 1 (Mus musculus, UniProt P38532); experiment: inhibition of MG132-induced HSE-luciferase signal, confirmation, cell-based, NIH3T3, luminescence, dose retest (AID 2382); assay type: functional;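 further: NIH3T3 fibroblasts with HSF1-driven luciferase reporter stressed by proteasome inhibitor MG132; luminescence from HSF1-driven luciferase expression after 8 hours of MG132 stress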
T2 sequence (P38532 whole entry): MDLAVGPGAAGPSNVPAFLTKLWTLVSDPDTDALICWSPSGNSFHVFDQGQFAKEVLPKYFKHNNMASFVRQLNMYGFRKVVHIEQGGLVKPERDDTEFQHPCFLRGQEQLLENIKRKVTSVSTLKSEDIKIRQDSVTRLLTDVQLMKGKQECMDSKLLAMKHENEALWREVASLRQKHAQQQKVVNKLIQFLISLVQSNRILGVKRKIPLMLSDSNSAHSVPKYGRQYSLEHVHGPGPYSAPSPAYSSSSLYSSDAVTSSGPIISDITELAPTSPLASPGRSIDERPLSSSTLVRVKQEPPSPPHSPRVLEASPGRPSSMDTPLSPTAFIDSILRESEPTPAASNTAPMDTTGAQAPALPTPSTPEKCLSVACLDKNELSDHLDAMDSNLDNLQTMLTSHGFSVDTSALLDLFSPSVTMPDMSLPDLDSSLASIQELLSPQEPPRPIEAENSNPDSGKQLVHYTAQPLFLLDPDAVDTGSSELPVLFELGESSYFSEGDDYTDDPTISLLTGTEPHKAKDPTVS

Vero = experiment: cells; assay type: functional, cell-based; details: Chlorocebus sabaeus
[17] = HEp-2 cell cytotoxicity, dose response, cytotoxicity control for RSV inhibitor project, HTS (AID 2410); assay type: functional; details: human respiratory syncytial virus
cells [18] = assay type: functional, cell-based
[19] = inhibitors of SNCA 5'UTR-driven reporter translation, confirmation, H4 neuroglioma cells, luminescence (AID 1988); assay type: functional, cell-based
[20] = inhibitors of firefly luciferase expression or activity, dose response, H4 neuroglioma cells, luminescence (AID 1990); assay type: functional, cell-based
[21] = Luminescence Cell-Based Dose Response HTS to Identify Inhibitors of 5'UTR Stem-Loop Driven Prion Protein mRNA Translation in H4 Neuroglioblastoma Cells. [Related pubchem assays: 1827 (Project Summary), 1813 (Primary HTS)]; assay type: functional
[22] = biological target: T3, Nuclear receptor subfamily 0 group B member 1 (Homo sapiens, UniProt P51843); assay type: functional, cell-based;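 further: HEK293T cells transfected with SF-1 and DAX-1 plus StAR promoter luciferase reporter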
T3 sequence (P51843 whole entry): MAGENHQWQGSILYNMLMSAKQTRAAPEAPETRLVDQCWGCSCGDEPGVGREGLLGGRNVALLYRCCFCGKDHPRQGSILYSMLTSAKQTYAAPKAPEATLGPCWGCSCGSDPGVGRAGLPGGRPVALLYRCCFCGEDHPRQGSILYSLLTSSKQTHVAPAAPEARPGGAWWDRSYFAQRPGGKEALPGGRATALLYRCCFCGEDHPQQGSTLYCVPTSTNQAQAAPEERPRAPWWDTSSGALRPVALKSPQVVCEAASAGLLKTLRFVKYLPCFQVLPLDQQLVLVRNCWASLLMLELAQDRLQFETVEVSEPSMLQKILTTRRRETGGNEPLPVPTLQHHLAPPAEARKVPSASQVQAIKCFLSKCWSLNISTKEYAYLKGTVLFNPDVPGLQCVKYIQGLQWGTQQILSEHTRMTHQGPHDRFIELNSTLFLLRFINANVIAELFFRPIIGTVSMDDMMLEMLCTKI

cells [23] = experiment: cells
[24] = biological target: Adenosylmethionine-8-amino-7-oxononanoate aminotransferase (Mycobacterium tuberculosis, UniProt P9WQ81); experiment: Mycobacterium tuberculosis BioA enzyme inhibitor Measured in Biochemical System Using Plate Reader - 2163-02_Inhibitor_Dose_CherryPick_Activity.; assay type: functional, Mycobacterium tuberculosis UT205
[25] = biological target: T4, Low molecular weight phosphotyrosine protein phosphatase (Homo sapiens, UniProt P24666); assay type: functional; details: read-out: IC50_Mean
T4 sequence (P24666 whole entry): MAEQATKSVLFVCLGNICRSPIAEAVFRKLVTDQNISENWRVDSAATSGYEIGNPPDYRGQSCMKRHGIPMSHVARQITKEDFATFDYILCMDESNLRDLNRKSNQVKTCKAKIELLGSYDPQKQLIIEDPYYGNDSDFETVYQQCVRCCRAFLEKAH

[26] = biological target: T4, Low molecular weight phosphotyrosine protein phosphatase; assay type: functional; details: read-out: IC50_Mean; remark: listed apart in the source
[27] = biological target: T5, Carboxy-terminal domain RNA polymerase II polypeptide A small phosphatase 1 (Homo sapiens, UniProt Q9GZU7); experiment: inhibitors of CTDSP1, concentration-response testing, biochemical assay, absorbance-based, actives from ultra-high-throughput screening (AID 540297); assay type: functional
T5 sequence (Q9GZU7 whole entry): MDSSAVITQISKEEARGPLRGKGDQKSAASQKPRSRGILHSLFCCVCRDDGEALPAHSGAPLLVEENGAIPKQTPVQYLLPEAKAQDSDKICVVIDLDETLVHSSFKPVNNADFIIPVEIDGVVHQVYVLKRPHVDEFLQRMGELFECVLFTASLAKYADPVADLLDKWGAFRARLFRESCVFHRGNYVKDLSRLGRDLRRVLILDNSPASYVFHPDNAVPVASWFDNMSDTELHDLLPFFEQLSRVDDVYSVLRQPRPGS

[28] = biological target: Long-chain-fatty-acid--AMP ligase FadD28 (Mycobacterium tuberculosis, UniProt P9WQ59); experiment: Fluorescence polarization aasay to screen for inhibitors that compete for the binding of FadD28 to a bisubstrate Measured in Biochemical System Using Plate Reader - 2147-01_Inhibitor_Dose_CherryPick_Activity.; assay type: functional, Mycobacterium tuberculosis H37Rv
[29] = Fluorescence-based cell-based high throughput dose response assay for inhibitors of the interaction of nucleotide-binding oligomerization domain containing 2 (NOD2) and the receptor-interacting serine-threonine kinase 2 (RIPK2).; assay type: functional; details: Homo sapiens
[30] = HEK293T cytotoxicity, dose response, cytotoxicity control for miR-122 modulator project, cell-based, activator set, cherry-pick (AID 720690); assay type: functional;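 further: HEK293T human cells scored for general mammalian cytotoxicity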
[31] = LMP1-driven NF-kB reporter inhibition, dose response, cell-based, luciferase reporter, luminescence, dry powder, set 2 (AID 624376); assay type: functional

Histone-lysine N-methyltransferase NSD2, sequence (O96028 whole entry): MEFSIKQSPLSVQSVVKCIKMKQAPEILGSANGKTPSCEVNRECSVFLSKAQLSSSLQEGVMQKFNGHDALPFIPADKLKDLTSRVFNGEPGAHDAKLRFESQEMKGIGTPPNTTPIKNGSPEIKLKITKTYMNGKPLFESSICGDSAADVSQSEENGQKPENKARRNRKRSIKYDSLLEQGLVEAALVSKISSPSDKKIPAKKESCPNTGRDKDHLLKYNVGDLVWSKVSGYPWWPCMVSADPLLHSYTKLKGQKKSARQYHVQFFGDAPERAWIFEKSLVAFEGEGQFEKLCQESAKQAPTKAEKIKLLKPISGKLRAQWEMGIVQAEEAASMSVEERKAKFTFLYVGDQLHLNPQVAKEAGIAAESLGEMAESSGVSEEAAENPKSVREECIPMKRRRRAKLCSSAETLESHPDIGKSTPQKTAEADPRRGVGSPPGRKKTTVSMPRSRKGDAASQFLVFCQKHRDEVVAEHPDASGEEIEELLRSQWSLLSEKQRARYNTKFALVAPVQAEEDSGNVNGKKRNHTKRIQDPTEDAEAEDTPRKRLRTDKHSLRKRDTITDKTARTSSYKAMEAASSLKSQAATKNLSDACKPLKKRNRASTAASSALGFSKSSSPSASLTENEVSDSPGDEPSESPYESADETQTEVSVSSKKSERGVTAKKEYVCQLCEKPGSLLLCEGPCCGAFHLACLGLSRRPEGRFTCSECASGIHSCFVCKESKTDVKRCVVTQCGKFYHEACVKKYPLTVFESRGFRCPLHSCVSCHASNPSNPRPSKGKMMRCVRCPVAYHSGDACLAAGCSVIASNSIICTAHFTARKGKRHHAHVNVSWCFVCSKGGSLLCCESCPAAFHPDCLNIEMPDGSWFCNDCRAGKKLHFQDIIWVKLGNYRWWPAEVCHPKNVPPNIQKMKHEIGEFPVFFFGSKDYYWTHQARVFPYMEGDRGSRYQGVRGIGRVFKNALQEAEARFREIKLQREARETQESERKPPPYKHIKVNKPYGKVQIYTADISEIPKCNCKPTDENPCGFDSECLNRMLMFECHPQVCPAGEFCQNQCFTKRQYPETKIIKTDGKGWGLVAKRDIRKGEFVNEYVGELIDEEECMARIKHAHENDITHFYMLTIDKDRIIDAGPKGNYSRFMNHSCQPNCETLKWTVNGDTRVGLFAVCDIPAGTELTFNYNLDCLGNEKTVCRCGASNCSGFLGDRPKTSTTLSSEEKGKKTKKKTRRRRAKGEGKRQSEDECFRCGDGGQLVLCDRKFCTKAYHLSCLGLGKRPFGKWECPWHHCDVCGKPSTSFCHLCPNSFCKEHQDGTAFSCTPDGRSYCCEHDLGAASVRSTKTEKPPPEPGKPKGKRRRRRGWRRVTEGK
Steroidogenic factor 1, sequence (Q13285 whole entry): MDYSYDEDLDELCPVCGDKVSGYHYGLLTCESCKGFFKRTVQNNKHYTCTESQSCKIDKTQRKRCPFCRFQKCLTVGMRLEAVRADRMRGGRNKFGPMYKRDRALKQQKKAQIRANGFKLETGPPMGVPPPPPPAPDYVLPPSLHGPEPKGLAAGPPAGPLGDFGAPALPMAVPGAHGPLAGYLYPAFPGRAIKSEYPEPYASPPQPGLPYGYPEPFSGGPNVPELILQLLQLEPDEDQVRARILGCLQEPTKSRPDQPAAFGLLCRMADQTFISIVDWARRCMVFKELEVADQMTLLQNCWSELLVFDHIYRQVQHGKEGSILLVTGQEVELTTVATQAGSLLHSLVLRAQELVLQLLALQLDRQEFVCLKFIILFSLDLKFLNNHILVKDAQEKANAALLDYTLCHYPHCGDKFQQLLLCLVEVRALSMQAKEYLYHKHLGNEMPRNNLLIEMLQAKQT
Long-chain-fatty-acid--AMP ligase FadD28, sequence (P9WQ59 whole entry, the tested form may be a part): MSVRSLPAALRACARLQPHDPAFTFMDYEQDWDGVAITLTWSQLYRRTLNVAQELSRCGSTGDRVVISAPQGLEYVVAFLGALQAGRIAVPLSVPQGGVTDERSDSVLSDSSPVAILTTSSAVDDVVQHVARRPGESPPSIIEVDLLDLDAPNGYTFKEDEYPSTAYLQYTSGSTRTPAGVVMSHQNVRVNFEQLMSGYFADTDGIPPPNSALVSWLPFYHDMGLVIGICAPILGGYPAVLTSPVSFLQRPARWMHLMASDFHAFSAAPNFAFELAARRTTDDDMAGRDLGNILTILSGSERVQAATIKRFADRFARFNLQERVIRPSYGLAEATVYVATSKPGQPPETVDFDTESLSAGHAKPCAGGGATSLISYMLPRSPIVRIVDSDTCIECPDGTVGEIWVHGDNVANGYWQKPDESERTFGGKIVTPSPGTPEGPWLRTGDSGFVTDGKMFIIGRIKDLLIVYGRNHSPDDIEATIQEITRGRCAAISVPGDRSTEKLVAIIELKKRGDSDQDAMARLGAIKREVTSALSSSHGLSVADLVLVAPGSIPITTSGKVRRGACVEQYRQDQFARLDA
Nuclear receptor subfamily 5 group A member 2, sequence (O00482 whole entry): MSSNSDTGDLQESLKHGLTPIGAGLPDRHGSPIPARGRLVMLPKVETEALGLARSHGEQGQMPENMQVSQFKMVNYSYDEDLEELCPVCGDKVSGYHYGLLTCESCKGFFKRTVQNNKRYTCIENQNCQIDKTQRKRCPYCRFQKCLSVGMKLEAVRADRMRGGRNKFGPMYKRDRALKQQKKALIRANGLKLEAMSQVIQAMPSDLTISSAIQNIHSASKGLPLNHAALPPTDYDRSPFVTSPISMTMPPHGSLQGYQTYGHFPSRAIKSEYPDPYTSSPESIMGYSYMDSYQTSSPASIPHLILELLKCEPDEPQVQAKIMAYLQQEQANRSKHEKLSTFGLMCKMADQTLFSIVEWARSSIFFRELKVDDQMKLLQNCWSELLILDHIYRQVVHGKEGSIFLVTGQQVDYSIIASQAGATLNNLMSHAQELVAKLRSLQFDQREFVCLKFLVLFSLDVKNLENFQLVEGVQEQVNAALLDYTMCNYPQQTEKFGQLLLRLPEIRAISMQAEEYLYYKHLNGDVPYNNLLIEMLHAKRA
FAD-linked sulfhydryl oxidase ALR, sequence (P55789 whole entry, the tested form may be a part): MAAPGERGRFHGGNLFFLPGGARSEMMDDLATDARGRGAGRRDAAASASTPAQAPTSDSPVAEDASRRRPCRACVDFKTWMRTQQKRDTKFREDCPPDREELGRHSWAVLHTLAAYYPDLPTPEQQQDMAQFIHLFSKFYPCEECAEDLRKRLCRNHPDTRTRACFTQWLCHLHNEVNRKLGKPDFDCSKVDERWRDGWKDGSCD
Adenosylmethionine-8-amino-7-oxononanoate aminotransferase, sequence (P9WQ81 whole entry): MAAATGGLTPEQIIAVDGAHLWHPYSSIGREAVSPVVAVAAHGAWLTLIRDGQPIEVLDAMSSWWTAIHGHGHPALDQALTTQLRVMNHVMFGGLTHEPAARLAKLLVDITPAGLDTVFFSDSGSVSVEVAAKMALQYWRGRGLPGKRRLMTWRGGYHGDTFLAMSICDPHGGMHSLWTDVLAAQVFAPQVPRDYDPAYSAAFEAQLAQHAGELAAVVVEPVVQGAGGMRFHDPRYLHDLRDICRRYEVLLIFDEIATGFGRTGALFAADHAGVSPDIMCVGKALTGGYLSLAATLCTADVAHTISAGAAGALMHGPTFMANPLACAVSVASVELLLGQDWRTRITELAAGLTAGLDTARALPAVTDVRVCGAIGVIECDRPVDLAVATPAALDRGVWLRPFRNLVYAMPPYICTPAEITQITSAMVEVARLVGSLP
DNA dC->dU-editing enzyme APOBEC-3G, sequence (Q9HC16 whole entry): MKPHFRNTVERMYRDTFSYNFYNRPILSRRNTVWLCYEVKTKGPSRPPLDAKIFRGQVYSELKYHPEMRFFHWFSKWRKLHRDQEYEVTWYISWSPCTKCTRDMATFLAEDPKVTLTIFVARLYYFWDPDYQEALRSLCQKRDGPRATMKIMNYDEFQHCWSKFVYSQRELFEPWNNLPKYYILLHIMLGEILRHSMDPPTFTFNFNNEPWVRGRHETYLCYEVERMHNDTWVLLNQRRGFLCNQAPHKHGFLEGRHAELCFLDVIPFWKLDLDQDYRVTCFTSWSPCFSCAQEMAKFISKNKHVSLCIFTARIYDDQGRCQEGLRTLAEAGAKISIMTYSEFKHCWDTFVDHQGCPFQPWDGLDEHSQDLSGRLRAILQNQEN
Large T antigen, sequence (P03070 whole entry): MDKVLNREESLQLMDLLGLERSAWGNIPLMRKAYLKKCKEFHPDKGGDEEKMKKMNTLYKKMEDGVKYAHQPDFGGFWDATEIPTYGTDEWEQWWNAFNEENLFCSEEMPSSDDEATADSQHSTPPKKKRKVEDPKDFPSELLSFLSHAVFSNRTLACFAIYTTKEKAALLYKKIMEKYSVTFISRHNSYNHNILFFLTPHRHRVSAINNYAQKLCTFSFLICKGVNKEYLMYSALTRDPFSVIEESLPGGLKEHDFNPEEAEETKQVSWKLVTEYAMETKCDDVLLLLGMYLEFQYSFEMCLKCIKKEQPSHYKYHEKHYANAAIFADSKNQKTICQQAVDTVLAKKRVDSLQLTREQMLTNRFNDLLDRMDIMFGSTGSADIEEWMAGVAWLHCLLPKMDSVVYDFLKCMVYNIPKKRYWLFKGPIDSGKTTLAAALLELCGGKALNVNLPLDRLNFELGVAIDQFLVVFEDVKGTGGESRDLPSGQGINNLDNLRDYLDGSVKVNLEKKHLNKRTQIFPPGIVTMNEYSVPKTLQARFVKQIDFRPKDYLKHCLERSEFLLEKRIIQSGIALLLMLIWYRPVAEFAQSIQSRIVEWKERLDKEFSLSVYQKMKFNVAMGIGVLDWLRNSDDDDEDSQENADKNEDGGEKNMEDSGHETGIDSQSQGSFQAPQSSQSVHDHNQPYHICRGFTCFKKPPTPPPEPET
DNA dC->dU-editing enzyme APOBEC-3A, sequence (P31941 whole entry): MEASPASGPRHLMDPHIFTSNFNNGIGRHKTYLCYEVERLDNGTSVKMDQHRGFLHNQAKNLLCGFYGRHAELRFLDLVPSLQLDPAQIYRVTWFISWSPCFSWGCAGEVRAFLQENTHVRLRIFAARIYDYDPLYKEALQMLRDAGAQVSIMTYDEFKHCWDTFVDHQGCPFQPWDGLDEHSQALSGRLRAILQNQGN

CCCNC(=O)c1sc2c(c1C(=O)Nc1ccccn1)CCCC2
IC50 [1]: 14.5 µM (inactive)
IC50 (Steroidogenic factor 1): 8.39 µM (active)
IC50 [2]: 35.9 µM (inactive)

CC1(C)CC(N2CCCCC2)=CC(=[N+]2CCCCC2)C1
EC50 (cells [3]): > 29.9 µM (inactive)
IC50 [4]: 2.2 µM (active)
IC50 [5]: 4.57 µM (active)
EC50 [6]: 0.369 µM (active)
EC50 [7]: 21.5 µM (active)
IC50 (Galanin receptor type 3): 3.67 µM (active)

CCN1CCN(c2ccc(N)cc2)CC1
AC50 [8]: 1.47 µM (active)
AC50 [9]: > 20 µM (inactive)
AC50 [10]: 4.5 µM (active)

COCCCNC(=O)c1sc2ncnc(N3CCc4ccccc4C3)c2c1C
AC50 [11]: 6.66 µM (active)
AC50 [12]: 3.98 µM (active)

O=C(c1cc2sccc2n1Cc1ccc(F)cc1)N1CCN(c2nc3ccccc3s2)CC1
AC50 [13]: 3.48 µM (active)
AC50 [14]: 1.36 µM (active)
AC50 [15]: 1.71 µM (active)
IC50 (Protein Wnt-3a): 5.49 µM (active)
AC50 (INS1): 3.42 µM (active)

CCN1CCN(c2ccc(N)cc2C)CC1
AC50 [8]: 0.278 µM (active)
AC50 [9]: > 20 µM (inactive)
IC50 (Large T antigen): 6.6 µM (active)
AC50 [10]: 1.73 µM (active)

Cc1c(Cl)cccc1NC(=O)CS(=O)(=O)c1ccccc1
IC50 [1]: 3.98 µM (active)
IC50 (Steroidogenic factor 1): 9.39 µM (active)
EC50 [16]: > 195 µM (not active)
IC50 [2]: 35.8 µM (inactive)

Nc1cnn(C2OC(CO)C(O)C2O)c(=O)n1 (centres undefined)
IC50 (Vero): 11.8 µM (active)
CC50 [17]: 5.98 µM (active)
IC50 (cells [18]): > 67.5 µM (inactive)
EC50 [19]: 14.7 µM (active)
EC50 [20]: 14.3 µM (active)
EC50 [21]: > 120 µM (not active)
IC50 [22]: > 22.5 µM (inactive)
IC50 (cells [23]): 1.91 µM (active)

CCOC(=O)C1(CCc2ccccc2)CCN(C(=O)CN2CCOC2=O)CC1
AC50 [24]: 3.89 µM (active)

Cc1cc(C(=O)NCCc2ccc(Cl)cc2)c(C)o1
IC50 (cells [18]): > 67.5 µM (inactive)
IC50 [22]: > 67.5 µM (inactive)

CCc1ccc(NC(=O)C[S+]([O-])CC(=O)Nc2ccc(N3CCOCC3)cc2)cc1 (centres undefined)
IC50 [25]: 16.8 µM (active)
IC50 [26]: 17.4 µM (active)
IC50 [27]: 5.78 µM (active)

O=C(NCCSCc1ccc(Cl)cc1Cl)c1ccc(CN2CCOCC2)cc1
AC50 [28]: 15.7 µM (active)

CCOC(=O)c1ccc(NC(=S)N(CCN(C)C)Cc2cccs2)cc1
AC50 [28]: > 100 µM (inactive)

CCOC(=O)[C@]12Cc3c(cc(OC)c(OC)c3OC)[C@H]1N(C1CCCCC1)C(=O)c1cc(OC)ccc12
IC50 [29]: 2.36 µM (active)

CNC(=O)C[C@H]1CC[C@@H]2[C@H](COC[C@@H](O)CN2C(=O)Nc2ccc(Cl)c(Cl)c2)O1
AC50 [24]: 1.88 µM (active)

COc1ccc(NC(=O)N(C)C[C@@H]2Oc3cc(C#CCC(C)C)ccc3S(=O)(=O)N([C@@H](C)CO)C[C@@H]2C)cc1
AC50 [30]: 26.8 µM (active)
AbsAC35 [31]: 43.42 µM

CC(/C=N/NC(=O)c1ccc(Br)cc1)=C\c1ccccc1
IC50 [25]: 28.5 µM (inactive)
IC50 [26]: 17.2 µM (active)
